Measured values reported in patent US10435412B2, “Selective modulators of the activity of the GPR55 receptor: chromenopyrazole derivatives” (Consejo Superior de Investigaciones Cientificas (CSIC), priority 2015, dated 2019).

How the values were obtained:
GPR55 receptor [1] = target: T1, GPR55 receptor (Homo sapiens, UniProt Q9Y2T6); assay: GPR55 agonist activity, real-time cell impedance (xCELLigence) in hGPR55-HEK293 cells; format: cell-based; settings: mean (95% confidence interval); for Emax: read-out: Emax (%), agonist action on GPR55
T1 construct: expressed in transfected cells
T1 sequence (Q9Y2T6 whole entry): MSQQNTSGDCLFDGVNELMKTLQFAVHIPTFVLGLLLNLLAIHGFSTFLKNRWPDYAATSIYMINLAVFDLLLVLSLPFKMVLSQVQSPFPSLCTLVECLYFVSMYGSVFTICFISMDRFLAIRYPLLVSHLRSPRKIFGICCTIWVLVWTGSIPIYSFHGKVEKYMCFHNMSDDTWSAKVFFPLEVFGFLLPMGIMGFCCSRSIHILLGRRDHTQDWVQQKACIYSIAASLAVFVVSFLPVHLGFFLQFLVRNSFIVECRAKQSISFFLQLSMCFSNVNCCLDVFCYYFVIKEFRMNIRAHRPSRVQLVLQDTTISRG
Experimental: (§1) In the present invention, the activity of the compounds of the invention on the GPR55 receptor was assessed by performing in vitro assays with real-time cell impedance measurements (xCELLigence experiments). These assays were performed on a HEK293 human embryonic kidney cell line overexpressing the recombinant GPR55 receptor in stable form (hGPR55-HEK293). The cells were seeded one day prior to carrying out the stimulation with the exemplary compounds of the present invention.
Activation of the GPR55 receptor by an agonist compound causes a cellular impedance detected by the system and compared to lysophosphatidylinositol (LPI), a reference GPR55 ligand. The effect of LPI measured at a concentration of 1 μM was set at 100%. […] Therefore, dose-response curves were determined at this time. Cell impedance values were normalized for each well, just prior to addition of the inventive compound of the invention to be evaluated.

GPR55 receptor [2] = target: T1, GPR55 receptor; assay: GPR55 antagonist activity: inhibition of LPI-mediated GPR55 stimulation (xCELLigence) in hGPR55-HEK293 cells; format: cell-based; settings: LPI alone or with example compound at 1 μM, mean (95% confidence interval)
Experimental: as §1
The ability of the exemplary compounds of the patent to inhibit LPI-mediated GPR55 receptor stimulation has been evaluated.
Values represent the mean with a 95% confidence interval calculated with 4 independent experiments performed in duplicate. Significant differences with respect to LPI values are considered due to lack of overlap of confidence intervals.

[3] = maximum effect relative to LPI 1 μM = 100%

Row | Molecule | melting point [°C] | Emax (GPR55 receptor [1]; [3]) [%] | other results
1 | COc1ccc2c(c1)OC(C)(C)c1cn(CCN3CCN(C(=O)COc4ccccc4)CC3)nc1-2 [Example 7, 2-(2-(4-phenoxyacetylpiperazinyl)ethyl)-2,4-dihydro-7-methoxy-4,4-dimethylchromeno[4,3-c]pyrazole] | 177 to 179 | 52 | –
2 | COc1ccc2c(c1)OC(C)(C)c1cn(CNC(=O)CN3CCN(c4ccccc4OC)CC3)nc1-2 [Example 14, 2-(2-(4-(2-methoxyphenyl)piperazinyl)acetamidomethyl)-2,4-dihydro-7-methoxy-4,4-dimethylchromeno[4,3-c]pyrazole] | – | 51 | –
3 | lysophosphatidylinositol [LPI, reference compound] | – | – | EC50 (GPR55 receptor [1]; hGPR55-HEK293 cells, xCELLigence, 5 minutes after addition, 4 experiments, read-out: EC50 (nM), agonist action on GPR55): 2.82 nM; Emax (%), agonist action on GPR55 (GPR55 receptor [1]; [3]): 100 (81-118) %; EC50 (GPR55 receptor [2]; hGPR55-HEK293 cells, read-out: EC50 (nM) of LPI in the presence of example compound): 1.6 nM; Emax (%) of LPI in the presence of example compound (GPR55 receptor [2]; relative to LPI activity): 99 (90-108) %
4 | COc1ccc2c(c1)OC(C)(C)c1cn(CCN3CCN(C(=O)c4ccccc4)CC3)nc1-2 [Example 4, 2-(2-(4-benzoyl-piperazinyl)ethyl)-2,4-dihydro-7-methoxy-4,4-dimethylchromeno[4,3-c]pyrazole] | – | 51 | –
5 | COc1ccc2c(c1)OC(C)(C)c1cn(CCN3CCN(C(=O)C4CCCCC4)CC3)nc1-2 [Example 9, 2-(2-(4-cyclohexylcarbonyl-piperazinyl)ethyl)-2,4-dihydro-7-methoxy-4,4-dimethylchromeno[4,3-c]pyrazole] | 151 to 152 | 47 | –
6 | COc1ccc2c(c1)OC(C)(C)c1cn(CCN3CCN(C(=O)C(C)(C)C)CC3)nc1-2 [Example 10, 2-(2-(4-pivaloyl-piperazinyl)ethyl)-2,4-dihydro-7-methoxy-4,4-dimethylchromeno[4,3-c]pyrazole] | – | 49 | –
7 | COc1ccc2c(c1)OC(C)(C)c1cn(CCN3CCN(C(=O)c4ccco4)CC3)nc1-2 [Example 2, 2-(2-(4-(2-furoyl)piperazinyl)ethyl)-2,4-dihydro-7-methoxy-4,4-dimethylchromeno[4,3-c]pyrazole] | – | 43 | –
8 | COc1ccc2c(c1)OC(C)(C)c1cn(CCN3CCN(C(=O)C4CCCO4)CC3)nc1-2 (stereo not shown) [Example 8, 2-(2-(4-(2-tetrahydrofuroyl)piperazinyl)ethyl)-2,4-dihydro-7-methoxy-4,4-dimethylchromeno[4,3-c]pyrazole] | 158 to 160 | 51 | –
9 | COc1ccc2c(c1)OC(C)(C)c1cn(CCN3CCN(C(=O)c4cccs4)CC3)nc1-2 [Example 6, 2-(2-(4-(2-thienoyl)piperazinyl)ethyl)-2,4-dihydro-7-methoxy-4,4-dimethylchromeno[4,3-c]pyrazole] | 163 to 165 | 45 | –
